Data: publication PMC6742494 (ACS infectious diseases, 2016)
Values after ≈ are worked out from the molar mass of the structure shown. Values joined by “and” are separate entries in the source; they are usually repeats but may differ in a detail not shown here. Identical values can stand only once. Like-named read-outs stand apart in the source and are kept apart here.

Legend:
M. smegmatis mc^2155 [1] = type: cell-based, Mycobacterium smegmatis; settings: pH 5.5
M. bovis BCG [2] = type: cell-based, Mycobacterium bovis
M. smegmatis mc^2155 [3] = type: cell-based, Mycobacterium smegmatis
Mtb H37Rv = assay: microbe, parasite or virus in culture; type: cell-based, Mycobacterium tuberculosis; settings: for MIC99: Mycobacterium tuberculosis, H37RV
[4] = human
Pseudomonas aeruginosa = assay: microbe, parasite or virus in culture; type: cell-based
in vitro [5] = settings: human, hepatocytes
[6] = test system: intracellular Mtb H37Rv in THP-1 cells; type: cell-based, Mycobacterium tuberculosis
THP-1 cells = assay: cells; type: cell-based; settings: Homo sapiens, THP-1, 18 h, read-out: IC50 THP-1
M. bovis BCG [7] = assay: microbe, parasite or virus in culture; type: cell-based; settings: Mycobacterium tuberculosis variant bovis BCG
[8] = test system: normal human foreskin fibroblast (HFF) cells; assay: cells; type: cell-based; settings: 48 h, read-out: IC50 HFF
Mtb T 21 (INH-sensitive) = assay: microbe, parasite or virus in culture; type: cell-based; settings: Mycobacterium tuberculosis
[9] = mouse; for Clint: microsomes
[10] = test system: Mtb Beijing 26 (RIF-sensitive); assay: microbe, parasite or virus in culture; type: cell-based; settings: Mycobacterium tuberculosis
PBS-starved H37Rv = type: cell-based, Mycobacterium tuberculosis
Bacillus subtilis = assay: microbe, parasite or virus in culture; type: cell-based
Escherichia coli = assay: microbe, parasite or virus in culture; type: cell-based
in vitro [11] = settings: mouse, microsomes
in vitro [12] = settings: human, microsomes
Staphylococcus aureus = assay: microbe, parasite or virus in culture; type: cell-based
[13] = test system: Mtb Haarlem 23 (RIF-sensitive); assay: microbe, parasite or virus in culture; type: cell-based; settings: Mycobacterium tuberculosis
M. smegmatis mc^2155 [14] = assay: microbe, parasite or virus in culture; type: cell-based, Mycobacterium smegmatis; settings: Mycolicibacterium smegmatis
M. bovis BCG [15] = type: cell-based, Mycobacterium bovis; remark: listed apart in the source
M. smegmatis mc^2155 [16] = settings: cited from earlier work
M. bovis BCG [17] = type: cell-based, Mycobacterium bovis; remark: listed apart in the source

SMILES	MIC99 (Mtb H37Rv; 120 h, read-out: MIC (MIC99)) [µg/mL]	Predicted EH [4]	IC50 (THP-1 cells) [µg/mL]	MIC (Mtb T 21 (INH-sensitive)) [µg/mL]	Predicted EH [9]	Clint [9] [mL/min]	MIC [10] [µg/mL]	sensitivity of non-replicating Mtb (PBS-starved H37Rv)	half-life (in vitro [11]) [min]	half-life (in vitro [12]) [min]	MIC [13] [µg/mL]	other results
N#CC(C#N)=NNc1cccc(Cl)c1 [CCCP, carbonyl cyanide m-chlorophenylhydrazone]												intrabacterial pH (M. smegmatis mc^2155 [1]): 5.5
FC(F)(F)Oc1ccc(Oc2ccc(CNCCNC3C4CC5CC(C4)CC3C5)cc2)cc1 (centres unmarked) [Compound 8, N^1-adamantan-2-yl-N^2-(4-(4-(trifluoro-methoxy)phenoxy)benzyl)ethane-1,2-diamine]	1.2	0.144	4.4 (≈ 9.55 µM)	0.58 (≈ 1.26 µM)	0.557	113	1.2 (≈ 2.61 µM)	sensitive	24.1	231	1.2 (≈ 2.61 µM)	effect on ΔpH (M. bovis BCG [2]): None of the concentrations tested reduced ΔpH; effect on ΔΨ (red / green fluorescence ratio of DiOC2) (M. smegmatis mc^2155 [3]): rapid depletion of ΔΨ; MIC99 (Mtb H37Rv): 2.5 µM; IC50 (Pseudomonas aeruginosa): 12.5 µg/mL (≈ 27.1 µM); half-life (in vitro [5]): 190 min; reduction in bacterial cfu compared to untreated infected macrophages [6]: two-log reduction; MIC (M. bovis BCG [7]): 0.575 µg/mL and 1.25 µM; IC50 [8]: 16.1 µg/mL (≈ 35 µM); reduction in viability of non-replicating Mtb (PBS-starved H37Rv): 3 log; IC50 (Bacillus subtilis): 6.25 µg/mL (≈ 13.6 µM); IC50 (Escherichia coli): 6.25 µg/mL (≈ 13.6 µM); IC50 (Staphylococcus aureus): 6.25 µg/mL (≈ 13.6 µM); MIC (M. smegmatis mc^2155 [14]): 9.21 µg/mL and 20 µM; effect on intracellular ATP (M. bovis BCG [15]): reduces intracellular ATP in a dose-dependent manner; intrabacterial pH (M. smegmatis mc^2155 [1]): ~7
CC[C@@H](CO)NCCN[C@@H](CC)CO [EMB, ethambutol]	2			0.5 (≈ 2.45 µM)			1 (≈ 4.89 µM)	tolerant			1 (≈ 4.89 µM)	
NNC(=O)c1ccncc1 [INH, isoniazid]			7000 (≈ 51000 µM)	0.05 (≈ 0.365 µM)			0.025 (≈ 0.182 µM)	tolerant			0.025 (≈ 0.182 µM)	1×MIC (in vitro MIC) (Mtb H37Rv): 0.05 µg/mL
Cc1ncc2n1-c1ccc(Cl)cc1C(c1ccccc1F)=NC2 [Midazolam, midazolam]		0.920			0.924	1130			2.41	3.35		Clint ([4]; microsomes): 239 mL/min
CO[C@H]1/C=C/O[C@@]2(C)Oc3c(C)c(O)c4c(O)c(c(/C=N/N5CCN(C)CC5)c(O)c4c3C2=O)NC(=O)/C(C)=C\C=C\[C@H](C)[C@H](O)[C@@H](C)[C@@H](O)[C@@H](C)[C@H](OC(C)=O)[C@@H]1C [RIF, rifampicin]			240 (≈ 292 µM)	0.0125 (≈ 0.0152 µM)			0.0125 (≈ 0.0152 µM)	tolerant			0.0125 (≈ 0.0152 µM)	1×MIC (in vitro MIC) (Mtb H37Rv): 0.025 µg/mL
CC(C)=CCC/C(C)=C/CNCCNC1C2CC3CC(C2)CC1C3 (centres unmarked) [SQ109]	1.56	0.929			0.926	1118			2.44	2.97		MIC (MIC99) (Mtb H37Rv): 1.6 µg/mL (≈ 4.84 µM); effect on ΔΨ and ΔpH (M. smegmatis mc^2155 [16]): rapidly depleted both the transmembrane potential (ΔΨ) and the chemical proton gradient (ΔpH); effect on ΔΨ (M. bovis BCG [17]): rapidly deplete ΔΨ
